Measurements taken from patent US10975434B2, “Growth differentiation factor 15 as biomarker for metformin” (Sanofi-Aventis Deutschland GmbH, priority 2015, dated 2021).

Legend:
GDF15 [1] = assay: Acute metformin injection, serum GDF15 in C57bl6 mice; format: in vivo, mouse; conditions: 250 mg/kg intraperitoneally, male C57bl6 mice, versus saline; P<0.05
Procedure: (§1) For the acute experiments, 12 (i.e. 6 per group) 20-week old male C57bl6 mice (Jackson Laboratories) were fasted for 12 hours then allowed to feed ad libitum for 2 hours prior to injection with either metformin (250 mg/kg in 10 μl/g body weight saline) or vehicle (10 μl/g body weight saline) intraperitoneally. Blood was collected 90 minutes later by tail vein bleed, and serum was assayed for GDF15 levels using the Elisa described above (R&D Systems, Minneapolis, Minn.). […] Fed bloods were sampled by tail vein bleed from the animals at the end of the treatment period and serum GDF15 measured as above. Animal experiments were all approved by the McMaster University Animal Ethics Committee.

GDF15 [2] = assay: Chronic metformin in high-fat diet, serum GDF15 in obese C57bl6 mice; format: in vivo, mouse; conditions: obese insulin-resistant mice, 2.5 g/kg metformin in 60% high-fat diet for 6 weeks, versus untreated controls; P<0.05
Procedure: as §1

GDF15 [3] = assay: Multiplex serum biomarker analysis: GDF15 level versus metformin use and dose; format: in vivo, human; conditions: serum of people taking varying doses of metformin; FIG. 2
Procedure: At Myriad RBM Inc., the samples were thawed at room temperature (RT), vortexed, spun at 13,000 g for 5 minutes for clarification, and an aliquot was removed into a master microtiter plate for analysis. Using automated pipetting, an aliquot of each sample was introduced into one of the capture microsphere multiplexes of the Human DiscoveryMAP. The mixtures of sample and capture microspheres were thoroughly mixed and incubated at RT for 1 hour. Multiplexed cocktails of biotinylated reporter antibodies for each multiplex (such as GDF-15), were then added robotically, and after thorough mixing, were incubated for an additional hour at RT. Multiplexes were developed using an excess of streptavidinphycoerythrin solution which was thoroughly mixed into each multiplex and incubated for 1 hour at RT. […] Testing results were determined first for the high, medium and low controls for each multiplex to ensure proper assay performance. Unknown values for each of the analytes localized in a specific multiplex were determined using 4 and 5 parameter, weighted and non-weighted curve fitting algorithms included in the data analysis package^40. […]
The 237 available biomarkers were analyzed to identify those that were statistically independent determinants of the use of metformin using unadjusted logistic regression models and forward selection. […]

GDF15 mRNA = assay: GDF15 messenger RNA expression in primary hepatocytes (BeadChip); format: cell-based, mouse; conditions: primary C57Bl6 hepatocytes, metformin 0.5 mM versus vehicle; P=0.003
Procedure: To further understand the link between metformin and GDF15 levels, in vitro experiments were conducted using mouse hepatocytes. Primary hepatocytes from 4 different C57Bl6 wild-type male mice were isolated by collagenase digestion as previously described^14. Briefly, cells were plated on 12-well collagen-coated plates overnight in William's Media E containing 10% fetal bovine serum (FBS) and 1% antibiotic-antimycotic. […] Media was then snap frozen and stored at −80° C. for later analyses, and cells were harvested in cell lysis buffer for assessment of total protein or RNA.
GDF15 release into the media was measured using a commercially available ELISA kit (R&D Systems, Minneapolis, Minn.) and expressed per mg of hepatocyte protein. Total RNA was isolated using the Trizol plus RNA Purification kit (Ambion), concentrated with Speedvac (Thermo), and then quantified using Quant-IT RiboGreen (LifeTech). Total RNA was then reverse transcribed and amplified using the Illumina TotalPrep RNA Amplification Kit (LifeTech) according to the manufacturer's protocol. Samples were hybridized to the Illumina Mouse Ref-8 v2.0 complementary DNA BeadChip and scanned on the iScan System (Illumina). The raw sample probe profile and control probe profile were exported from GenomeStudio version 1.9.0 (Illumina). […]

[4] = Outcomes during follow-up of biomarker study participants by baseline metformin use
[5] = share of the 2317 participants on metformin at baseline

## CN(C)C(=N)NC(=N)N [Metformin, metformin]
GDF15 [1]
  90 minute serum levels of GDF 15: significantly increased
GDF15 [2]
  serum GDF 15 levels after chronic treatment: significantly increased
GDF15 [3]
  mean concentration of GDF15 by metformin dose: rose with progressively higher doses
GDF15 mRNA
  increase in GDF15 mRNA: 1.6 fold
[4]; participants on metformin at baseline, N 2317, P 0.008 vs no metformin
  Expanded Composite CV Outcome during follow-up, number of participants: 622
[4]; participants on metformin at baseline, N 2317, P 0.01 vs no metformin
  Death during follow-up, number of participants: 331
[4]; participants on metformin at baseline, N 2317, median follow-up 6.2 years, P 0.007 vs no metformin
  Composite CV Outcome during follow-up, number of participants: 346
[4]; [5]
  Composite CV Outcome during follow-up, value in parentheses: (14.9)
  Death during follow-up, value in parentheses: (14.3)
  Expanded Composite CV Outcome during follow-up, value in parentheses: (26.8)
